The source of these data is patent US20200055871A1, “ACTIVATORS OF THE RETINOIC ACID INDUCIBLE GENE "RIG-I" PATHWAY AND METHODS OF USE THEREOF” (Kineta Immuno-Oncology LLC, priority 2018, published 2020).

For test [1], the system named is IRF3-deficient THP1-Lucia™ ISG IRF3−/− cells. Kind of test: THP1-Lucia ISG IRF3−/− reporter assay (IRF3-deficient control cells). The test is classed as cell-based, human. To be noted: compound 5 to 20 μM, 18 h. The protocol:
(§1) The promoter was comprised of five IFN-stimulated response elements (ISRE) fused to an ISG54 minimal promoter which is unresponsive to NF-kB or AP-1 pathways. […] The IRF3-deficient THP1-Lucia™ ISG IRF3−/−reporter cell line was generated by CRISPR technology from the parent THP1-Lucia™ ISG reporter cell line.
(§2) THP1-Lucia™ ISG cells and IRF3-deficient THP1-Lucia™ ISG IRF3−/−cells were differentiated with PMA (100 ng/ml) and stimulated with compounds at the indicated concentrations (5 to 20 μM), positive control, or not treated (background). Luciferase secretion was quantified using the QUANTI-Luc luciferase assay system (InvivoGen) 18 h after stimulation. Data are shown as fold increase luciferase activity over background in Table 7 and represent the IRF3-dependent ISG54 promoter activity by the THP1-Lucia™ ISG cells in response to compounds. […] The fold increase of compounds (10 μM, *20 μM, **5 μM) induced IRF3 dependent luciferase activity is indicated as follows: “≠” indicates less than 2.4 fold increase; “+” indicates a 2.4-4.9 fold increase; “++” indicates a 5-9.9 fold increase; “+++” indicates a 10-19 fold increase; “++++” indicates a 20-39 fold increase; “+++++” indicates greater than or equal to 40 fold increase.
A general note: Reporter assays use an easily measured gene product as a stand-in for the process of interest.

Test [2] concerns RIG-I deficient CT26 RIG-I−/− cells. Nature of the test: CXCL10 secretion by RIG-I deficient CT26 RIG-I−/− cells (ELISA). The format is cell-based, murine. As to conditions: compound 5 to 20 μM, 24 h. The protocol:
(§3) The CT26 murine colon carcinoma cell line (ATCC) was used to evaluate the induction of CXCL10 secretion. CXCL10 is an important chemokine in tumor immune biology that recruits tumor-specific T cells to the tumor. To confirm that compound-mediated CXCL10 production was RIG-I specific, RIG-1 deficient CT2-RIG-I−/−cells were generated by Kineta Inc. using CRISPR technology.
(§4) CT26 cells were seeded at a density of 1×10^4 cells per well on a 96-well tissue culture plate in 100 μL of cell culture and cells were incubated at 37° C. and 5% CO2 for 24 hr. Next, CT26 cells were treated with compounds at the indicated concentrations. CXCL10 was quantified by ELISA from supernatants taken 24 h after compound stimulation by use of the CXCL10 Duo Set ELISA kit (Cat #DY466, R&D, Minneapolis, Minn., USA) according to the manufacturer's instructions.
(§5) CXCL10 secretion by CT26 cells in response to compounds (in an amount of 5 to 20 μM) of the present disclosure is shown in Table 8. The compound-induced CXCL10 production was RIG-I dependent, since none of the compounds mediated CXCL10 secretion in RIG-I deficient CT26 RIG-I−/−cells (about 0 pg/mL of CXCL10, or below the level of quantitation). The compounds (10 μM, *20 μM, **5 μM) are indicated in the table as follows: “≠” indicates less than 100 pg/mL; “+” indicates 100-199 pg/mL; “++” indicates 200-399 pg/mL; “+++” indicates 400-799 pg/mL; “++++” indicates 800 to 1599 pg/mL; “+++++” indicates greater than or equal to 1600 pg/ml.
(In general: An ELISA detects its analyte on a solid surface through an enzyme-linked reagent.)

The test system of test [3] is murine CT26 colon carcinoma cells. Nature of the test: RIG-I dependent CXCL10 secretion by CT26 cells (ELISA). The format is cell-based. As to conditions: supernatant 24 h after stimulation. On the procedure:
as §3, §4, §5

The test system of test [4] is IRF3 signaling pathway in THP1-Lucia™ ISG cells. Kind of test: THP1-Lucia ISG reporter assay: induction of IRF3-dependent gene expression (secreted luciferase). The test is classed as cell-based, human. As to conditions: PMA-differentiated cells, 18 h after stimulation. The protocol:
The compounds were evaluated in the THP1-Lucia™ ISG (interferon stimulated genes) reporter assay to determine if the compounds activate the IRF3 signaling pathway. The THP1-Lucia™ cells (InvivoGen) express the secreted luciferase (Lucia) reporter gene under the control of an IRF-inducible promoter. The reporter cell line was developed from human monocytic leukemia THP-1 cells.
as §1, §2

The mark [5] stands for this setting: Homo sapiens, THP1-Lucia ISG, 10 μM compound, read-out: fold increase of IRF3-dependent luciferase activity over background, THP1 ISG.

As for “6-[2-(morpholin-4-yl)ethoxy]-N-{4-oxo-5,12-dithia-3-azatricyclo[7.3.0.0^2,^6]dodeca-1,6,8,10-tetraen-11-yl}-1-benzothiophene-5-carboxamide [Example 70]”, the “fold increase of luciferase activity, THP1 ISG IRF3−/−” value (“fold increase of luciferase activity” below) in test [1] was “− (less than 0.5 fold above baseline was considered below the level of quantitation)”. In test [2], the “CXCL10 secretion, CT26 RIG-I−/−” value was “−”.
For `CSc1nc2c(ccc3nc(NC(=O)c4cc5ccccc5cc4OCCCN4CCOCC4)sc32)s1` [Example 36, N-[11-(methylsulfanyl)-3,10-dithia-5,12-diazatricyclo[7.3.0.0^2,^6]dodeca-1,4,6,8,11-pentaen-4-yl]-3-[3-(morpholin-4-yl)propoxy]naphthalene-2-carboxamide], in test [3] (10 μM compound), the “CXCL10 secretion, CT26” value is given as “+++ (400-799 pg/mL)”. Also, the fold induction at 10 µM in test [4] (setting [5]) is 5 to 9.9. Besides, in test [2], the “CXCL10 secretion, CT26 RIG-I−/−” value is “−”.
On the same counts, the results for `O=C(Nc1nc2ccc3scnc3c2s1)c1ccc(-c2ccccc2)cc1OCCCCN1CCOCC1` [Example 38, N-{3,10-dithia-5,12-diazatricyclo[7.3.0.0^2,^6]dodeca-1,4,6,8,11-pentaen-4-yl}-3-[4-(morpholin-4-yl)butoxy]-[1,1′-biphenyl]-4-carboxamide] are “+++ (400-799 pg/mL)”, 5 to 9.9 and “−”.
For `O=C(Nc1nc2ccc3scnc3c2s1)c1ccc2cc(OCCCCN3CCOCC3)ccc2c1` [Example 39, N-{3,10-dithia-5,12-diazatricyclo[7.3.0.0^2,^6]dodeca-1,4,6,8,11-pentaen-4-yl}-6-[4-(morpholin-4-yl)butoxy]naphthalene-2-carboxamide] the same measures were “++ (200-399 pg/mL)”, 5 to 9.9 and “−”.
Turning to `O=C(Nc1nc2ccc3scnc3c2s1)c1cc2c(cc1OCCN1CCOCC1)OCO2` [Example 40, N-{3,10-dithia-5,12-diazatricyclo[7.3.0.0^2,^6]dodeca-1,4,6,8,11-pentaen-4-yl}-6-[2-(morpholin-4-yl)ethoxy]-2H-1,3-benzodioxole-5-carboxamide], the “CXCL10 secretion, CT26” value in test [3] (10 μM compound) is listed as “≠ (less than 100 pg/mL)”. Besides, the fold induction at 10 µM in test [4] (setting [5]) was 20 to 39. Besides, the “CXCL10 secretion, CT26 RIG-I−/−” value in test [2] is reported as “−”.
On the same counts, the results for `O=C(Nc1nc2ccc3scnc3c2s1)c1cc2c(cc1OCCCCN1CCOCC1)OCO2` [Example 41, N-{3,10-dithia-5,12-diazatricyclo[7.3.0.0^2,^6]dodeca-1,4,6,8,11-pentaen-4-yl}-6-[4-(morpholin-4-yl)butoxy]-2H-1,3-benzodioxole-5-carboxamide] are “+ (100-199 pg/mL)”, 2.4 to 4.9 and “−”.
Regarding `O=C(Nc1nc2ccc3scnc3c2s1)c1cc2ccsc2cc1OCCN1CCOCC1` [Example 42, N-{3,10-dithia-5,12-diazatricyclo[7.3.0.0^2,^6]dodeca-1,4,6,8,11-pentaen-4-yl}-6-[2-(morpholin-4-yl)ethoxy]-1-benzothiophene-5-carboxamide], the “CXCL10 secretion, CT26” value in test [3] (20 μM compound (*)) is on record as “+* (100-199 pg/mL)”. For the same molecule, in test [4] (setting [5]), the fold induction at 10 µM was less than 2.4. Further, the “CXCL10 secretion, CT26 RIG-I−/−” value in test [2] is given as “−”.
`O=C(Nc1nc2ccc3scnc3c2s1)c1cc2ccsc2cc1OCCCCN1CCOCC1` [Example 43, N-{3,10-dithia-5,12-diazatricyclo[7.3.0.0^2,^6]dodeca-1,4,6,8,11-pentaen-4-yl}-6-[4-(morpholin-4-yl)butoxy]-1-benzothiophene-5-carboxamide]: the “CXCL10 secretion, CT26” value in test [3] (10 μM compound) is on record as “+++ (400-799 pg/mL)”. For the same molecule, the fold induction at 10 µM in test [4] (setting [5]) fell in the range of 10 to 19. Also, the “CXCL10 secretion, CT26 RIG-I−/−” value in test [2] is listed as “−”.
For `CCN(CCO)CCOc1cc2ccccc2cc1C(=O)Nc1nc2ccc3scnc3c2s1` [Example 45, N-{3,10-Dithia-5,12-diazatricyclo[7.3.0.0^2,6]dodeca-1,4,6,8,11-pentaen-4-yl}-3-{2-[ethyl(2-hydroxyethyl)amino]ethoxy}naphthalene-2-carboxamide carboxamide], in test [3] (10 μM compound), the “CXCL10 secretion, CT26” value is given as “+++ (400-799 pg/mL)”. Moreover, the fold induction at 10 µM in test [4] (setting [5]) lay in the range of 10 to 19. The “CXCL10 secretion, CT26 RIG-I−/−” value in test [2] is “−”.
As to `O=C(Nc1nc2ccc3scnc3c2s1)c1cc2ccccc2cc1OCCNCCO` [Example 46, N-{3,10-dithia-5,12-diazatricyclo[7.3.0.0^2,^6]dodeca-1,4,6,8,11-pentaen-4-yl}-3-{2-[(2-hydroxyethyl)amino]ethoxy}naphthalene-2-carboxamide], the “CXCL10 secretion, CT26” value in test [3] (10 μM compound) is listed as “+++ (400-799 pg/mL)”. Also, the fold induction at 5 µM in test [4] (Homo sapiens, THP1-Lucia ISG, 5 μM compound (**), read-out: fold increase of IRF3-dependent luciferase activity over background, THP1 ISG) was 2.4 to 4.9. Moreover, the “CXCL10 secretion, CT26 RIG-I−/−” value in test [2] is reported as “−”.
`O=C(Nc1nc2ccc3scnc3c2s1)c1cc2ccccc2cc1OCCN1CCNCC1` [Example 47, N-{3,10-Dithia-5,12-diazatricyclo[7.3.0.0^2,6]dodeca-1,4,6,8,11-pentaen-4-yl}-3-[2-(piperazin-1-yl)ethoxy]naphthalene-2-carboxamide]: the “CXCL10 secretion, CT26” value in test [3] (10 μM compound) is on record as “+ (100-199 pg/mL)”. In addition, the fold induction at 10 µM in test [4] (setting [5]) was in the range of 2.4 to 4.9. Moreover, in test [2], the “CXCL10 secretion, CT26 RIG-I−/−” value is given as “−”.
In the case of `O=C(Nc1cc2ccc3scnc3c2s1)c1cc2ccsc2cc1OCCN1CCOCC1` [Example 65, N-{5,12-dithia-3-azatricyclo[7.3.0.0^2,^6]dodeca-1,3,6,8,10-pentaen-11-yl}-6-[2-(morpholin-4-yl)ethoxy]-1-benzothiophene-5-carboxamide], the “CXCL10 secretion, CT26” value in test [3] (10 μM compound) is on record as “≠ (less than 100 pg/mL)”. In addition, the “fold increase of IRF3-dependent luciferase activity over background, THP1 ISG” value in test [4] (10 μM compound) was “+ (a 2.4-4.9 fold increase)”. Further, the “fold increase of luciferase activity” value in test [1] is on record as “− (less than 0.5 fold above baseline was considered below the level of quantitation)”.
`COc1nc2c(ccc3cc(NC(=O)c4cc5ccsc5cc4OCCCCN4CCOCC4)sc32)s1` [Example 68, N-{4-methoxy-5,12-dithia-3-azatricyclo[7.3.0.0^2,^6]dodeca-1,3,6,8,10-pentaen-11-yl}-6-[4-(morpholin-4-yl)butoxy]-1-benzothiophene-5-carboxamide]: the “fold increase of luciferase activity” value in test [1] was “− (less than 0.5 fold above baseline was considered below the level of quantitation)”. The “CXCL10 secretion, CT26 RIG-I−/−” value in test [2] is “−”.
With `Cn1ccc2cc(OCCN3CCOCC3)c(C(=O)Nc3nc4ccc5scnc5c4s3)cc21` [Example 69, N-{3,10-dithia-5,12-diazatricyclo[7.3.0.0^2,^6]dodeca-1,4,6,8,11-pentaen-4-yl}-1-methyl-5-[2-(morpholin-4-yl)ethoxy]-1H-indole-6-carboxamide], in test [1], the “fold increase of luciferase activity” value is on record as “− (less than 0.5 fold above baseline was considered below the level of quantitation)”. Moreover, the “CXCL10 secretion, CT26 RIG-I−/−” value in test [2] is given as “−”.
On the same counts, the results for “N-{4-methoxy-5,12-dithia-3-azatricyclo[7.3.0.0^2,^6]dodeca-1,3,6,8,10-pentaen-11-yl}-6-[2-(morpholin-4-yl)ethoxy]-1-benzothiophene-5-carboxamide [Example 67]” are “− (less than 0.5 fold above baseline was considered below the level of quantitation)” and “−”.
